Assay results: US4055715A, “Method of producing 1-N-[L-(-)-α-hydroxy-γ-aminobutyryl]XK-62-2” (Abbott Laboratories, priority 1974, dated 1977)
In brackets after ≈: the same amount, converted by molar mass.

Legend:
Escherichia coli KY 8349 = assay: Agar dilution MIC, pH 7.2 (Table 2); assay type: cell-based; conditions: KY8349, E. coli KY 8349, produces neomycin-kanamycin phosphotransferase Type I, read-out: Minimum Inhibitory Concentration
Escherichia coli KY 8348 [1] = assay: Agar dilution MIC, pH 7.2 (Table 2); assay type: cell-based; conditions: KY8348, E. coli KY 8348, produces gentamicin acetyltransferase Type I, read-out: Minimum Inhibitory Concentration
[2] = test system: Salmonella typhosa ATCC 9992; assay: Agar-dilution MIC, pH 8.0 (Table 1); assay type: cell-based; conditions: Salmonella enterica, pH 8, read-out: Minimum Inhibitory Concentration
[3] = test system: Proteus vulgaris ATCC 6897; assay: microbe, parasite or virus in culture; assay type: cell-based; conditions: ATCC6897, P. vulgaris ATCC 6897, agar-dilution, pH 8.0, read-out: Minimum Inhibitory Concentration
Sarcina lutea ATCC 9341 = assay: Agar dilution MIC, pH 7.2 (Table 2); assay type: cell-based; conditions: Micrococcus luteus, ATCC9341; Sarcina lutea ATCC 9341; agar dilution, pH 7.2; read-out: Minimum Inhibitory Concentration
[4] = Acute toxicity in mice, intravenous injection; conditions: mouse, in vivo
[5] = test system: Pseudomonas aeruginosa KY 8510; assay: Agar dilution MIC, pH 7.2 (Table 2); assay type: cell-based; conditions: KY8510, P. aeruginosa KY 8510, produces kanamycin acetyltransferase, agar dilution, pH 7.2, read-out: Minimum Inhibitory Concentration
[6] = test system: Bacillus subtilis ATCC 6633; assay: Agar dilution MIC, pH 7.2 (Table 2); assay type: cell-based; conditions: ATCC6633, B. subtilis ATCC 6633, agar dilution, pH 7.2, read-out: Minimum Inhibitory Concentration
[7] = test system: strains of the aforementioned resistant bacteria; assay: Protection tests against infections induced by resistant bacteria; assay type: in vivo
Escherichia coli KY 8348 [8] = assay: Agar-dilution MIC, pH 8.0 (Table 1); assay type: cell-based
From the text: (§1) The former bacterium inactivates kanamycins and gentamicins by adenylation, and the latter inactivates gentamicins by acetylation.

Escherichia coli KY 8327 [9] = assay: Agar-dilution MIC, pH 8.0 (Table 1); assay type: cell-based
From the text: as §1

[10] = test system: Pseudomonas aeruginosa KY 8511; assay: Agar dilution MIC, pH 7.2 (Table 2); assay type: cell-based; conditions: KY8511, P. aeruginosa KY 8511, produces gentamicin acetyltransferase Type I and neomycin-kanamycin phosphotransferase Type I, agar dilution, pH 7.2, read-out: Minimum Inhibitory Concentration
[11] = test system: Klebsiella pneumoniae No. 8045; assay: Agar dilution MIC, pH 7.2 (Table 2); assay type: cell-based; conditions: K. pneumoniae No. 8045, agar dilution, pH 7.2, read-out: Minimum Inhibitory Concentration
[12] = test system: Pseudomonas aeruginosa KY 8516; assay: Agar dilution MIC, pH 7.2 (Table 2); assay type: cell-based; conditions: KY8516, P. aeruginosa KY 8516, probably produces kanamycin acetyltransferase, agar dilution, pH 7.2, read-out: Minimum Inhibitory Concentration
Escherichia coli T-5 = assay: Agar dilution MIC, pH 7.2 (Table 2); assay type: cell-based; conditions: T5, E. coli T-5, agar dilution, pH 7.2, read-out: Minimum Inhibitory Concentration
Escherichia coli KY 8321 = assay: Agar dilution MIC, pH 7.2 (Table 2); assay type: cell-based; conditions: KY8321, E. coli KY 8321, produces gentamicin adenyltransferase and neomycin-kanamycin phosphotransferase Type II, agar dilution, pH 7.2, read-out: Minimum Inhibitory Concentration
Providencia sp. 164 = assay: Agar dilution MIC, pH 7.2 (Table 2); assay type: cell-based; conditions: Providencia sp. 164, produces gentamicin acetyltransferase Type II, read-out: Minimum Inhibitory Concentration
[13] = test system: Pseudomonas aeruginosa BMH 1; assay: Agar dilution MIC, pH 7.2 (Table 2); assay type: cell-based; conditions: BMH1, P. aeruginosa BMH 1, agar dilution, pH 7.2, read-out: Minimum Inhibitory Concentration
Proteus vulgaris 6897 = assay: Agar dilution MIC, pH 7.2 (Table 2); assay type: cell-based; conditions: Proteus vulgaris; P. vulgaris 6897; agar dilution, pH 7.2; read-out: Minimum Inhibitory Concentration
[14] = test system: Escherichia coli having R factors; assay: Antibacterial activity against R factor strains; assay type: cell-based; conditions: E. coli having R factors, resistant to known aminoglycoside antibiotics
[15] = test system: Staphylococcus aureus ATCC 6538P; assay: Agar-dilution MIC, pH 8.0 (Table 1); assay type: cell-based; conditions: ATCC6538P, S. aureus ATCC 6538P, agar-dilution, pH 8.0, read-out: Minimum Inhibitory Concentration
Proteus mirabilis 1287 = assay: Agar dilution MIC, pH 7.2 (Table 2); assay type: cell-based; conditions: Proteus mirabilis; P. mirabilis 1287; agar dilution, pH 7.2; read-out: Minimum Inhibitory Concentration
Escherichia coli KY 8327 [16] = assay: Agar dilution MIC, pH 7.2 (Table 2); assay type: cell-based; conditions: KY8327, E. coli KY 8327, read-out: Minimum Inhibitory Concentration
[17] = test system: Pseudomonas aeruginosa BMH 1; assay: Agar-dilution MIC, pH 8.0 (Table 1); assay type: cell-based; conditions: BMH1, P. aeruginosa BMH 1, agar-dilution, pH 8.0, read-out: Minimum Inhibitory Concentration
[18] = test system: Bacillus subtilis No. 10707; assay: Agar-dilution MIC, pH 8.0 (Table 1); assay type: cell-based; conditions: B. subtilis No. 10707, agar-dilution, pH 8.0, read-out: Minimum Inhibitory Concentration
Escherichia coli T-2 = assay: Agar dilution MIC, pH 7.2 (Table 2); assay type: cell-based; conditions: T2, E. coli T-2, agar dilution, pH 7.2, read-out: Minimum Inhibitory Concentration
[19] = test system: Krebsiella pneumoniae ATCC 10031; assay: Agar-dilution MIC, pH 8.0 (Table 1); assay type: cell-based; conditions: Klebsiella pneumoniae, ATCC10031; K. pneumoniae ATCC 10031; agar-dilution, pH 8.0; read-out: Minimum Inhibitory Concentration
[20] = test system: Staphylococcus aureus 209 P; assay: Agar dilution MIC, pH 7.2 (Table 2); assay type: cell-based; conditions: S. aureus 209 P, agar dilution, pH 7.2, read-out: Minimum Inhibitory Concentration
[21] = test system: Staphylococcus aureus Smith; assay: Agar dilution MIC, pH 7.2 (Table 2); assay type: cell-based; conditions: S. aureus Smith, agar dilution, pH 7.2, read-out: Minimum Inhibitory Concentration
Escherichia coli ATCC 26 = assay: Agar-dilution MIC, pH 8.0 (Table 1); assay type: cell-based; conditions: ATCC26, E. coli ATCC 26, agar-dilution, pH 8.0, read-out: Minimum Inhibitory Concentration

CNC[C@@H]1CC[C@@H](N)[C@@H](O[C@H]2[C@H](O)[C@@H](O[C@H]3OC[C@](C)(O)[C@H](NC)[C@H]3O)[C@H](NC(=O)[C@@H](O)CCN)C[C@@H]2N)O1 [Compound IV, 1-N-[L-(-)-α-hydroxy-γ-aminobutyryl] XK-62-2] gave an MIC (Escherichia coli KY 8349) of 0.2 µg/mL (≈ 0.354 µM), an MIC (Escherichia coli KY 8348 [1]) of 0.1 µg/mL (≈ 0.177 µM) and an MIC [2] of 0.008 µg/mL (≈ 0.0142 µM). It also gave an MIC [3] of 0.065 µg/mL (≈ 0.115 µM), an MIC (Sarcina lutea ATCC 9341) of 0.4 µg/mL (≈ 0.708 µM) and an LD50 [4] of 250 mg/kg. The MIC [5] was 3.12 µg/mL (≈ 5.53 µM), the MIC [6] was 0.1 µg/mL (≈ 0.177 µM) and the “antibacterial activity in protection tests” value ([7]; infections induced by resistant bacteria, versus gentamicin antibiotics and XK-62-2) was “much higher antibacterial activity than the gentamicin antibiotics and XK-62-2”. The “retention of the α-hydroxy-γ-aminobutyryl group in vivo” value ([7]; protection tests, in vivo) was “maintain the α-hydroxy-γ-aminobutyryl group in vivo”, the “antibacterial activity (in words)” value (Escherichia coli KY 8348 [8]; E. coli KY 8348, from Table 1) was “strong anti-bacterial activity” and the MIC (Escherichia coli KY 8348 [8]; Escherichia coli, KY8348, E. coli KY 8348, produces gentamicin acetyltransferase Type I, agar-dilution, pH 8.0, read-out: Minimum Inhibitory Concentration) was 0.004 µg/mL (≈ 0.00708 µM). For the same molecule, the “antibacterial activity (in words)” value (Escherichia coli KY 8327 [9]; E. coli KY 8327, from Table 1) was “strong anti-bacterial activity”, the MIC (Escherichia coli KY 8327 [9]; Escherichia coli, KY8327, E. coli KY 8327, produces gentamicin adenyltransferase, agar-dilution, pH 8.0, read-out: Minimum Inhibitory Concentration) was 0.016 µg/mL (≈ 0.0283 µM) and the MIC [10] was 3.12 µg/mL (≈ 5.53 µM). It also gave an MIC [11] of 0.2 µg/mL (≈ 0.354 µM), an MIC [12] of 3.12 µg/mL (≈ 5.53 µM) and an MIC (Escherichia coli T-5) of 0.4 µg/mL (≈ 0.708 µM). For the same molecule, the MIC (Escherichia coli KY 8321) was 0.2 µg/mL (≈ 0.354 µM), the MIC (Providencia sp. 164) was 12.5 µg/mL (≈ 22.1 µM) and the MIC [13] was 1.56 µg/mL (≈ 2.76 µM). The MIC (Proteus vulgaris 6897) was 3.12 µg/mL (≈ 5.53 µM), the “antibacterial activity (in words)” value [14] was “strong anti-bacterial activity” and the MIC [15] was 0.016 µg/mL (≈ 0.0283 µM). The MIC (Proteus mirabilis 1287) was 3.12 µg/mL (≈ 5.53 µM), the MIC (Escherichia coli KY 8327 [16]) was 0.2 µg/mL (≈ 0.354 µM) and the MIC [17] was 2.08 µg/mL (≈ 3.68 µM). The MIC [18] was 0.004 µg/mL (≈ 0.00708 µM), the MIC (Escherichia coli T-2) was 0.4 µg/mL (≈ 0.708 µM) and the MIC [19] was 0.008 µg/mL (≈ 0.0142 µM). It also gave an MIC [20] of 0.1 µg/mL (≈ 0.177 µM), an MIC [21] of 0.1 µg/mL (≈ 0.177 µM) and an MIC (Escherichia coli ATCC 26) of 0.004 µg/mL (≈ 0.00708 µM).
